Data from a melting point compilation (Tetko et al.; mined from patent text by program, amines drawn as free bases though some values may be those of a salt).

| melting point [°C] | Compound |
| --- | --- |
| 73 to 74 | Cc1ccc(S(=O)(=O)OCCc2c(F)ccc(F)c2F)cc1 |
| 80 to 81 | COc1ccc2c(Br)c(C)sc2c1 |
| 101 to 103 | O=C1C=C(Oc2ccc(C3CCCC3)cc2)C(O)O1 (stereo not given) |
| 142 to 143 | O=C(O)Cc1cc(C(=O)c2ccc(Cl)cc2)sc1-c1ccccc1 |
| 139 to 141 | Nc1ccc(-c2ncnn2-c2ccccc2F)cc1 |
| 206 to 207 | Cc1n[nH]c(=O)n1-c1ccc(OCC(F)(F)C(F)F)cc1 |
| 169 to 171 | COC(=O)c1c(Br)c(F)cc2[nH]ncc12 |
| 100 | COC1(c2cc(F)cc(F)c2)CCOCC1 |
| 120 to 122 | CCN1CCCC1=NC(=O)Nc1c(C)cccc1C |
| > 300 | CCn1c(=O)[nH]c(=O)c2nc(-c3ccc(/C=C/C(=O)O)cc3)[nH]c21 |
| 95.8 to 97 | O=C(OCc1ccccc1)c1ccc(OCc2cccc(COc3ccc(C(=O)OCc4ccccc4)cc3Cl)c2)c(Cl)c1 |
| 313 to 316 | N=C(N)c1ccc(-n2cnn(-c3ccc(CCC(=O)O)cc3)c2=O)cc1 |
| > 250 | COc1ccc2c(Nc3ccc4[nH]ccc4c3)c(C#N)cnc2c1 |
| 106 to 108 | CC(=O)N(C)c1cc(Cl)ccc1C(=O)c1cnoc1C1CC1 |
| 198 to 200 | CCCOc1ccc(S(=O)(=O)N2CCN(C)CC2)cc1-c1nc2cc3ncn(Cc4cccc(Cl)c4)c3cc2c(=O)[nH]1 |
| 247 | Cc1c(-c2cccnc2)ccc2c(=O)c(C(=O)O)cn(C3CC3)c12 |
| 120 to 122 | Cc1ccc(Sc2nc(-c3ccccc3)cnc2N)cc1 |
| 220 | O=[N+]([O-])c1cc(Cc2cc(Cl)ccc2O)c(O)c(Cc2cc(Cl)ccc2O)c1 |
| 126 to 128 | CC(=O)NCCCC(=O)c1ccc(Cl)cc1CCC(=O)N1CCN(C)CC1 |
| 203 | O=C1C(=O)N(c2ccccc2)C(=O)N1c1ccccc1 |

| melting point [°C] | Compound |
| --- | --- |
| 103 to 105 | COC(=O)c1ccc(-c2nc(-c3cc(C)oc3C)cs2)cc1 |
| 78 to 79 | CCOP(=O)(CNc1cc(Oc2ccc(C(F)(F)F)cc2Cl)ccc1[N+](=O)[O-])OCC |
| 260 to 262 | CCOc1ncc(N)cc1C(=O)O |
| 83.9 | CCc1nc2ccccc2c(=O)o1 |
| 253 to 255 | CC(=O)C(Cl)=NNc1ccccc1S(C)(=O)=O |
| 109 to 112 | CN(C)Cc1ccc(C(=O)Nc2nc(-c3ccco3)c(C(=O)C3CCOCC3)s2)cc1 |
| 95 to 97 | CC1=C(c2ccc(C(=O)N3Cc4cccn4Cc4ccccc43)cc2)CCCC1=O |
| 83 to 84 | CCOC(=O)C(=O)Nc1c(C)c(C)c2c(c1C)C(c1ccc(C(C)C)cc1)CO2 (stereo not given) |
| 74 to 75 | CCOC(=O)COc1cccc2c1CCC(Br)C2=O (stereo not given) |
| > 310 | N#Cc1ccnc(C(N)=O)c1N |
| 218 to 219 | N#CCCNC(=O)c1nn(C2CCCCO2)cc1NC(=O)c1cc(Cl)ccn1 (stereo not given) |
| 145 to 146 | CCOC(=O)COc1ccccc1C(=O)Nc1ccccc1Sc1ccccc1-c1nnn[nH]1 |
| 152 to 155 | O=C1CN(NC(=O)Sc2ccccc2)C(=O)N1 |
| 77 to 78 | CC(C)(C)CC(C)(C)c1ccc(Oc2cc3nc(C(C)(C)C)oc3cc2[N+](=O)[O-])cc1 |
| 106 | CC(C)C(C)(C)C(O)C(Cc1ccc(Cl)cc1)n1cncn1 (stereo not given) |
| 246 to 248 | Cc1sc(-c2ccccc2)nc1CN(C)[C@H]1CC[C@H](c2ccc3[nH]c(=O)oc3c2)CC1 |
| 142 to 144 | Cc1ccc2cccc(OCc3c(Cl)ccc(S(=O)(=O)N(CCCCN)C(C)(C)C)c3Cl)c2n1 |
| 215 to 217 | CCOCc1nc2c(N)nc3cccnc3c2n1CCCCCC(N)=O |
| 221 | O=C(c1ccccc1O)N1CCc2cc(S(=O)(=O)N3CC(c4ccccc4)NC3=O)ccc21 (stereo not given) |
| 236 to 238 | O=S(=O)(NC1CCCCC1)c1ccc(Nc2nccc(N3CCCc4c(O)cccc43)n2)cc1 |
